Results taken from EP1285920A1, “C10 Ester sustituted taxanes as antitumor agents” (Florida State University Research Foundation, Inc., priority 2001, dated 2003).

Tests used:
blood cell populations = experiment: Effect of oral treatment on blood cell populations and body weight in the MX-1 study (Example 22); type: in vivo, nu/nu mice; conditions: mg/kg: 0499 80, 0550 73, 0611 113, 0748 200
Procedure: (§1) Antitumor compounds were administered orally in a study to investigate whether such a formulation is efficacious against the MX-1 human breast carcinoma xenograft. Antitumor compound 0499 was formulated as Solution 1 in Example 6. Antitumor compound 0550 was formulated as Solution 2 in Example 6. Antitumor compound 0611 was formulated as Solution 3 in Example 6. Antitumor compound 0748 was formulated as Solution 4 in Example 6. Other antitumor compounds were formulated similarly. The compounds were prepared in a vehicle of 90% saline, 5% Cremophor, and 5% ethanol.
(§2) Female nu/nu mice (11-12 weeks of age; implanted subcutaneously with 1 mm^3 MX-1 human breast carcinoma fragments in the flank) were sorted into one control group (n=10) and four treatment (n=6) groups (group mean tumor size of 47-49 mg). The study was terminated on Day 63.
In addition to survival and tumor regression responses, the effect of treatment on blood cell populations was assessed. The major effect of these antitumor compounds on blood cell populations was a marked reduction in the neutrophil cell number. As well, monocyte depletion correlated fairly well with neutrophil reduction for each antitumor compound. […] There was a correlation between antitumor activity and reduced neutrophil count. In general, toxicity (as determined by neutrophil depletion) and weight loss correlated with efficacy. […] Importantly, the toxicities observed with the very efficacious antitumor compounds were manageable and reversible; neutrophil count and body weight rebounded from their low points in just a few days. Table 20 summarizes the weight reduction, neutrophil and monocyte measurements on Day 4, with tumor weight reduction calculated at Day 18: Table 20

[1] = system: MX-1 human breast carcinoma; type: in vivo
Procedure: as §1, §2

[2] = system: NCI-H1299 (H1299) carcinoma; experiment: In vivo evaluation against NCI-H1299 human lung carcinoma xenograft (i.v., Example 11)
Procedure: (§3) Antitumor compounds were formulated for an i.v. dosing regime prepared in the following vehicle: 10% ethanol, 10% Cremophor and 80% isotonic saline.
(§4) Vehicle control animals were dosed twice intravenously with half the total volume being given separated by one hour. The study was terminated on Day 60.
(§5) A complete response is obtained if the tumor is not palpable at the end of the study.
(§6) A tumor scoring system was designed to provide a more quantitative ranking of efficacy (therapeutic potential) among the antitumor agents evaluated against the different human solid tumor xenografts. Each mouse in a study was given a score of from 1 to 10 at the end of the study. The scores can be summarized as follows:
(§7) The individual score for each mouse was averaged into a mean score for each treatment group. […]
The treatment protocol for the H1299 test was identical to the SK-MES test protocol. […]

HCT116 carcinoma = conditions: i.v. qd x 1 at MTD, Day 60
Procedure, shortened: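 Mice bearing HCT116 tumours received a single i.v. maximum tolerated dose per compound, formulated in 5% ethanol, 5% Cremophor, 90% isotonic saline. Study ended on Day 60; complete response meant no palpable tumour at study end.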

SK-MES carcinoma = experiment: In vivo evaluation against SK-MES human lung carcinoma xenograft (i.v., Example 11)
Procedure: as §3, §4, §5, §6, §7

[3] = Day 4, vs vehicle, single oral bolus
[4] = number of mice, single oral bolus Day 1, mg/kg: 0499 80, 0550 73, 0611 113, 0748 200, 6 mice/group, Day 63

What does the source list for `CCC(=O)O[C@H]1C(=O)[C@@]2(C)[C@H]([C@H](OC(=O)c3ccccc3)[C@]3(O)C[C@H](OC(=O)[C@H](O)[C@H](C=C(C)C)NC(=O)OC(C)(C)C)C(C)=C1C3(C)C)[C@]1(OC(C)=O)CO[C@@H]1C[C@@H]2O` [Compound 0499]?
% Reduction (Monocytes) (blood cell populations; [3]): 24.0%; % Reduction (Neutrophils) (blood cell populations; [3]): 91.6%; Monocytes (K/µL) (blood cell populations; Day 4, single oral bolus Day 1): 0.073 K/µL; Neutrophils (K/µL) (blood cell populations; Day 4, single oral bolus Day 1): 0.077 K/µL; Maximum Weight Loss (Day) (blood cell populations; body weight, day of maximum in parentheses in the cell, single oral bolus Day 1): -11.4% (7); complete tumor regressions ([1]; MX-1, single oral bolus Day 1, six mice per group (0611: five evaluable), ended Day 63): two; Mean Day of Survival (n) ([1]; days until tumor reached 1.5 g, single oral bolus Day 1, mg/kg: 0499 80, 0550 73, 0611 113, 0748 200, 6 mice/group, terminated Day 63): 56.6 ± 2.1 (3); Toxic Deaths ([1]; number of mice, single oral bolus Day 1, mg/kg: 0499 80, 0550 73, 0611 113, 0748 200, 6 mice/group): 0; Complete Response [1, 4]: 2; Partial Response [1, 4]: 0; Stable Disease [1, 4]: 1; % Reduction (Weight) ([1]; po, 432 h): 100.0%

How did the “Partial Response” value ([2]; i.v. split dose qd x 1) turn out when `CCC(=O)O[C@H]1C(=O)[C@@]2(C)[C@H]([C@H](OC(=O)c3ccccc3)[C@]3(O)C[C@H](OC(=O)[C@H](O)[C@@H](NC(=O)OC(C)(C)C)c4ccccn4)C(C)=C1C3(C)C)[C@]1(OC(C)=O)CO[C@@H]1C[C@@H]2O` [Compound 0503] was run?
The value was 0.

And the “Stable Disease” value ([2]; i.v. split dose qd x 1)?
The value was 3.

And the “antitumor activity” value ([2]; i.v. split dose qd x 1)?
Its value is “significant efficacy”.

What about the Survivors ([2]; i.v. split dose qd x 1, six mice per group) of the same molecule?
The Survivors was 5.

What about the “Mean Score” value ([2]; tumor score 1 to 10 per mouse, group mean) of the same molecule?
The value was 5.5 ± 1.6.

And the “Mean Score” value (HCT116 carcinoma; 5 mice/group, doses as in E3)?
The value was 9.2 ± 0.2.

And the “Stable Disease” value (HCT116 carcinoma; number of 5 mice, tumor did not reach 2.0 g by end of study, doses as in E3)?
Its value is 0.

What about the “Complete Response” value (HCT116 carcinoma; number of 5 mice, tumor not palpable at end of study, doses as in E3) of the same molecule?
Its value is 1.

What about the “Partial Response” value (HCT116 carcinoma; number of 5 mice, tumor smaller than on Day 1, doses as in E3) of the same molecule?
The value was 4.

What about the Survivors (HCT116 carcinoma; number of 5 mice, doses as in E3) of the same molecule?
The Survivors was 5.

And the “Toxic Deaths” value (HCT116 carcinoma; number of 5 mice, mg/kg: Taxol 36 (split doses), 0503 72.6, 0536 49, 0663 159, 0670 123, 0687 159, 0706 108, 0908 159, 0947 76.9, 0951 72.6, 0983 72.6, 0999 49, 1003 49, 1011 108)?
The value was 0.

And the “antitumor activity” value (SK-MES carcinoma; SK-MES, 0503 72.1 mg/kg i.v.)?
The value was “highly active”.

What about the “MDS (n)” value (SK-MES carcinoma; SK-MES, i.v. MTD in two half doses one hour apart, qd x 1, Taxol 36 mg/kg, 0503 72.1 mg/kg, days until tumor 1.5 g, ended Day 60) of the same molecule?
Its value is 46.0 ± 0(2) days.

What about the “Toxic Deaths” value (SK-MES carcinoma; SK-MES, i.v. split dose qd x 1, six mice per group) of the same molecule?
The value was 0.

And the Survivors (SK-MES carcinoma; SK-MES, i.v. split dose qd x 1, six mice per group, Day 60)?
Its Survivors is 4.

And the “Stable Disease” value (SK-MES carcinoma; SK-MES, i.v. split dose qd x 1, tumor below 1.5 g at termination)?
Its value is 1.

And the “Partial Response” value (SK-MES carcinoma; SK-MES, i.v. split dose qd x 1, tumor smaller than on Day 1)?
Its value is 0.

And the “Mean Score” value (SK-MES carcinoma; SK-MES, tumor score 1 to 10 per mouse, group mean)?
Its value is 6.5 ± 1.6.

What about the “tolerability” value (SK-MES carcinoma; mouse, in vivo, iv, 72.1 mg/kg) of the same molecule?
Its value is “well tolerated”.
